Experimental data published in article PMC10906223 (JCI Insight, 2024).
Several values for one entry are separate records, joined by “and”; a condition that tells them apart may be missing. Equal entries are not always repeated.

Key:
[1] = test system: murine dispersed islet cells; experiment: Insulin secretion from murine dispersed islet cells; format: cell-based, mouse; details: for Relative secretion of insulin: one value per mouse
Description: (§1) Pancreata of nondiabetic C57BL/6J mice were digested using collagenase P (Roche Diagnostics, catalog 11213873001), and islets were manually picked up using a stereomicroscope (ZEISS Stemi 305). […] Isolated mouse islets or provided human islets were dispersed as described ([28]). Briefly, 100–120 islets were washed 2 times using modified HBSS, then dispersed in 600 μL Accutase (Innovative Cell Technologies, catalog AT-104) by gently pipetting up and down for 7 minutes at 37°C. […] Following refreshing of KRBH, cells were dispensed in 8 microfuge tubes (2,000 cells/tube) and treated with WCDD301, preclustered Ephrin-A5 Fc, or preclustered Fc in the presence or absence of the competitive inhibitor of EphA4 receptor, rhyncophylline ([60]) (MilliporeSigma, catalog SML2345). In the presence or absence of these effectors, secretion assay was performed sequentially as shown in Supplemental Table 5. […] Preclustering of Ephrin-A5 Fc was done by mixing Ephrin-A5 Fc or Fc alone (BioLegend, catalog 790102) with anti-Fc antibody (Invitrogen, catalog A16086) (1:10 molar ratio) 20 minutes before treatment ([62]). […] Shedding of cleaved EphA4 was measured from the cell culture medium. Experiments were performed by dispersion of 200 islets, and EphA4 levels in media were measured by EphA4 ELISA (ABclonal, catalog RK06572).

[2] = test system: dispersed mouse islet cells; experiment: EphA4 shedding into culture medium (EphA4 ELISA); format: cell-based; details: Supplemental Figure 4D
Description: as §1

[3] = test system: diabetic NOD mice; experiment: Plasma glutamine in NOD mice; format: in vivo, mouse; details: WCDD301 group of NOD mice; quantity not given
Description: Terminal blood was collected into microfuge tubes containing K2-EDTA (supplemented by 45 mM phenylmethylsulphonyl fluoride and 0.77 μM aprotinin) through cardiac puncture. Plasma was separated by centrifugation (2,000g for 10 minutes at 4°C) and kept at –80°C until analysis. Plasma samples with hemolysis were excluded from the study. […] Values of BUN, creatinine, ALB, ALT, and AST were determined by a Roche Cobas C501 Autoanalyzer as performed by the Washington University Diabetes Research Center Translational Diagnostics Core. Reference intervals of blood chemistry parameters for inbred NOD mice were extracted from the Mouse Phenome Database (https://phenome.jax.org/).

[4] = test system: α cells of NOD mice islets; experiment: F-actin signal in α cells of pancreatic slices of NOD mice; format: in vivo, mouse; details: WCDD301-treated NOD mice; diabetic 47.14 ± 4.70, nondiabetic 79.14 ± 4.63
Description: (§2) Pancreata of NOD mice (females, n = 3 per group) from nondiabetic, diabetic placebo-treated, and diabetic WCDD301-treated cohorts were excised; fixed in 10% buffered formalin for 5 days; and treated with ethanol 70% for 2 days before paraffin embedding. The paraffin-embedded tissue blocks were longitudinally sectioned in 5 μm slices and fixed on microscope slides. Following deparaffinization (through incubation in graded xylene, graded ethanol, and PBS), permeabilization (using 0.1% Triton X-100 in PBS), and background blocking (using 5% BSA solution containing 0.1% Tween 20), samples were incubated with primary antibodies (mouse anti-glucagon, Abcam, catalog ab10988; above-mentioned rabbit anti-EphA4), secondary antibodies (goat anti-mouse IgG Alexa Fluor 488; Invitrogen, catalog A-11001; goat anti-rabbit IgG Alexa Fluor 633, Invitrogen, catalog A-21070), SPY555-Actin (Cytoskeleton, catalog SC202), and DAPI. Image acquisition and analysis were performed as for dispersed islet cells. […] ROIs were manually drawn around each islet, background signal was removed by thresholding, and intensity of glucagon signal was determined and normalized by the islet surface area. To determine sizes of α cells per islet, ROIs were manually drawn around α cells in each islet. […]

[5] = test system: diabetic NOD mice; experiment: Daily food intake in NOD mice; format: in vivo, mouse; design: Daily food intake (Figure 7E): unit not given here; details: for Daily food intake (Figure 7E): Diabetic, WCDD301 treated
Description: We preweighed WCDD301 into microfuge tubes and reconstituted it using deionized water. Using a 10 μL pipette tip, we placed the calculated dose of WCDD301 (at the volume range of 1–1.5 μL) within the center of pearls. WCDD301 was placed into pearls 30–45 minutes before administration. For oral administration of pearls, we designed an applicator using a disposable plastic transfer pipette and syringe plunger lubricated with olive oil. Food intake and body weight in each experimental group (diabetic WCDD301-treated, diabetic placebo-treated, and nondiabetic placebo-treated NOD mice) were monitored daily for 4 weeks. Urine glucose was measured from individually caged NOD mice (nondiabetic placebo treated n = 2, diabetic placebo treated n = 2, and diabetic WCDD301 treated n = 4, 21–23 weeks old) with metabolic cages. Urine glucose was monitored every 24 hours for 10 days by semiquantitative measurements (P-STICKS, Millpledge Veterinary).

[6] = test system: α cells of NOD mice islets; experiment: EphA4 signal in α cells of pancreatic slices of NOD mice; format: in vivo, mouse; details: WCDD301-treated NOD mice; diabetic 12.64 ± 1.12, nondiabetic 18.62 ± 1.09
Description: as §2

## CC(=O)OCC(N)(COC(C)=O)COC(C)=O [WCDD301, 2-(acetoxymethyl)-2-aminopropane-1,3-diyl diacetate]
[1]; 301 (1.5 µM), Glucose (1 mM), Figure 1G
  Relative secretion of insulin: 0.28 and 0.38 and 0.3 and 0.32 and 0.23
[1]; 301 (1.5 µM), Glucose (11 mM), Figure 1G
  Relative secretion of insulin: 1.22 and 1.05 and 0.8 and 0.98 and 1.49
[1]; 301 (3 µM), Glucose (1 mM), Figure 1G
  Relative secretion of insulin: 0.49 and 0.38 and 0.4 and 0.28 and 0.53
[1]; 301 (3 µM), Glucose (11 mM), Figure 1G
  Relative secretion of insulin: 0.67 and 1.1 and 0.98 and 1.25 and 0.63
[1]; Figure 1G
  Effect on insulin secretion: without significant effects
[1]; WCDD301 3 μM, Supplemental Figure 3
  Effect on insulin secretion in presence of rhyncophylline: no significant effect on insulin secretion
[2]
  Shedding of EphA4 into the cell culture medium: reduced shedding of EphA4 into the cell culture medium
[3]
  Plasma glutamine (Figure 7B): 0.7 and 0.74 and 0.65 and 0.71
[4]
  F-actin signal within α cells: 74.50 ± 4.80 AU
[5]; Day 1
  Daily food intake (Figure 7E): 188.5 and 161.1 and 187.4 and 162.1
[5]; Day 2
  Daily food intake (Figure 7E): 210.5 and 168.9 and 209.3 and 170
[5]; Day 3
  Daily food intake (Figure 7E): 184.2 and 168.9 and 183.1 and 170
[5]; Day 4
  Daily food intake (Figure 7E): 192.5 and 167.7
[5]; Day 7
  Daily food intake (Figure 7E): 203.2 and 168.3 and 202 and 169.4
[5]; Day 8
  Daily food intake (Figure 7E): 200 and 184.4 and 198.8 and 185.5
[5]; Day 9
  Daily food intake (Figure 7E): 226.3 and 184.4 and 225 and 185.5
[5]; Day 10
  Daily food intake (Figure 7E): 211.6 and 161.9 and 188.3 and 170.8
[5]; Day 11
  Daily food intake (Figure 7E): 185.1 and 169.8 and 210.3 and 170.8
[5]; Day 12
  Daily food intake (Figure 7E): 193.5 and 169.8 and 184 and 169.5
[5]; Day 13
  Daily food intake (Figure 7E): 182.7 and 168.5 and 192.3 and 160.2
[5]; Day 14
  Daily food intake (Figure 7E): 191.2 and 159.2 and 181.6
[5]; Day 15
  Daily food intake (Figure 7E): 204.2 and 190.1 and 190 and 170.2
[5]; Day 16
  Daily food intake (Figure 7E): 201 and 169.2 and 203 and 186.4
[5]; Day 17
  Daily food intake (Figure 7E): 227.4 and 185.3 and 199.8 and 186.4
[5]; Day 18
  Daily food intake (Figure 7E): 190.4 and 185.3 and 226.1 and 163.7
[5]; Day 19
  Daily food intake (Figure 7E): 212.6 and 162.7 and 189.2 and 171.7
[5]; Day 20
  Daily food intake (Figure 7E): 186.1 and 170.6 and 211.4 and 171.7
[5]; Day 21
  Daily food intake (Figure 7E): 194.4 and 170.6 and 184.9 and 170.4
[5]; Day 22
  Daily food intake (Figure 7E): 183.6 and 169.3 and 193.3 and 161
[5]; Day 23
  Daily food intake (Figure 7E): 192.1 and 160 and 182.5 and 192.2
[5]; Day 24
  Daily food intake (Figure 7E): 205.2 and 191 and 171
[5]; Day 25
  Daily food intake (Figure 7E): 202 and 170 and 204 and 187.3
[5]; Day 26
  Daily food intake (Figure 7E): 228.6 and 186.2 and 200.8 and 187.3
[5]; Day 27
  Daily food intake (Figure 7E): 177.9 and 175.1 and 174 and 179
[5]; Day 28
  Daily food intake (Figure 7E): 225.9 and 175.3 and 174.1 and 226.9
[5]; diabetic WCDD301-treated mice
  Food intake, daily monitoring: phenotypes similar to nondiabetic placebo-treated mice
[6]
  EphA4 signal within α cells: 21.84 ± 1.14 AU
